Data set [1] deals with Caco-2 cell monolayer. Nature of the data set: Immunofluorescence of Caco-2 monolayers after transport (zonulin-1, integrity). It counts as cell-based. Particulars: after transport studies, all the concentrations tested. Here is the method: The transwell membranes from TEER experiments were washed with PBS and fixed with 4% paraformaldehyde (PFA) for 15 min. Membranes were then washed in PBS and blocked with blocking solution (0.1% Triton, 1% BSA, 0.02% sodium azide, and 50 mM ammonium chloride) for 20 min at room temperature in the dark. Afterwards, they were incubated with an anti-zonulin 1 antibody (#402200, Invitrogen, Thermo Fisher Scientific, Waltham, MA, USA) at the final concentration of 2 μg mL^−1 at room temperature for 2 hours. Immunofluorescence staining was obtained by incubating the membranes for 90 min with Alexa Fluor 488 donkey anti-rabbit IgG (#A31573) at the final concentration of 4 μg mL^−1 (Invitrogen). The nuclei were counterstained with DAPI (1 : 2000). Membranes were cut down with an operating knife blade along the margin of the chamber and were mounted on slides using VectaMount solution (AQ Vector Laboratories, Burlingame, CA, USA). Slides were examined under a Nikon fluorescence inverted microscope (Nikon Instruments Europe, Firenze, Italy) and then analyzed through ImageJ software as previously described.
Figure S3: Fluorescence micrograph of the Caco-2 cell monolayers. Caco-2 cell monolayers treated with BRP2 (50 µM, 2 h) from TEER experiments were stained for tight junction protein expression of zonulin-1 (FITC, green). Nuclei were counterstained with DAPI (blue). […]
A general note: Caco-2 cells form a polarised layer with tight junctions and transporters.

Data set [2] can be described thus: Caco-2 cell monolayer permeation (transepithelial transport). Particulars: human, Caco-2, 21-day, transwell, apical to basolateral, HBSS 25 mM HEPES pH 7.4, 37°C, time point 120 min, UHPLC-MS/MS, means ± S.D. It counts as in vitro ADME. Here is the method: (§1) The colorectal adenocarcinoma (Caco-2) cell line was purchased from ATCC (Rockville, MD, USA). Cells were maintained in high-glucose DMEM (4.5 g/L) supplemented with 2 mM L-glutamine and 10% (v/v) heat-inactivated foetal bovine serum. Cells were cultured at 37°C in a humidified 5% CO2 atmosphere. To induce enterocytic Caco-2 differentiation, cells were seeded in a 12-well multiwell in transwell inserts (PET membrane, 0.4 μm pore size, 1.12 cm^2 surface area) at 2.6 × 10^5 cells/cm^2 and maintained for 21 days in complete medium. The medium was changed every second day. By 21 days, the monolayers become completely differentiated.
(§2) The integrity of the monolayers was evaluated by measurement of the transepithelial electrical resistance (TEER) using an EVOM2 epithelial voltohmmeter (World Precision Instruments, Sarasota, FL, USA). Only monolayers showing TEER higher than 300 Ω × cm^2 were then used for transport experiments. The integrity of the monolayers was checked before, during, and after the experiment. The filters were washed for 15-20 min at 37°C adding prewarmed Hank's balanced salt solution buffered with 25 mM HEPES and NaHCO3 (0.35 g/L) at pH 7.4 to the apical (0.4 mL) and to the basolateral (1.2 mL) transwell compartments, as previously described. For transport experiments, donor solution containing BRP2 peptide at the desired concentration (100-1 μM) was added to the apical compartment for the apical to basolateral (absorptive) direction. Samples from the receiving compartment were collected at different time points up to 120 min (15, 30, 60, 90, and 120 min). Samples from the donor compartment were collected at time 0 and at the end of the experiment (120 min) for the calculation of the mass balance.
(§3) Samples were stored at −20°C until UHPLC-MS/MS analyses to measure the concentration of BRP2 in both compartments (for detailed conditions, see Supporting Information ).
(§4) The apparent permeability coefficient (Papp) was calculated as described according to (1) Papp=dMR^t/dt×1/A×CD0, where MR is the amount of substance in the receiver chamber, A (cm^2) is the surface area of the barrier, and CD0 (μM) is the initial donor concentration. The reduction in donor concentration was also taken after every sampling (see Supporting Information ).
(§5) Instead, for the quantification of BRP2 in donor and receiver chamber, the stock solution was diluted with fresh HBSS to a series of concentrations ranged of 125-0.5 nM to establish the calibration curve (y = 0.000001x – 0,000363; R^2 ≥ 0.9997).
(§6) The apparent permeability values of BRP2 were calculated according to the Eq. 1. This calculation requires that the sink conditions are fulfilled, that is, the ratio CR/CD is less than 0.1 at each sampling point used in the analysis. […] The donor concentration was recalculated by subtracting the cumulative amount transported to the receiver chamber for each time interval:
(§7) CD (ti) and CR (ti) (μM): donor and receiver chamber concentrations calculated at each sample occasion (i) from the donor and receiver concentrations at the previous occasion CD (ti–1) and CR (ti–1), respectively; f=1–VS/VR: sample replacement diluition factor; VS (cm^3): sample volume; VR (cm^3): receiver chamber volume; VD (cm^3): donor chamber volume. ^[28]
(§8) recovery (%) = (CD(fin) × VD +∑ (CS(t) × VS(t)) + CR(fin) × VR(fin)) × 100 / (CD(0) × VD(0)) […]

Data set [3] relates to Caco-2 cell monolayer. The description is as above. It counts as in vitro ADME. Particulars: UHPLC-MS/MS. Here is the method: as §1, §2, §3, §4, §5, §6, §7, §8

Ends that are not written are not given here.

Usually Papp A→B stands for the apparent permeability from the apical to the basolateral side of a cell layer. Read a high Papp A→B as ready permeation. In the case of “SFNPTQL [BRP2, Ser-Phe-Asn-Pro-Thr-Gln-Leu]”, the “Caco-2 cell monolayer integrity (zonulin-1 expression)” value with Caco-2 cell monolayer [1] is “preserved”. This substance registered a Papp A→B at 120 min, 1 μM in data set [2] (BRP2 1 μM) of 0.53 ± 0.15 ×10⁻⁶ cm/s. The Papp A→B at 120 min, 50 μM in data set [2] (BRP2 50 μM) was found to be 0.2 ± 0.05 ×10⁻⁶ cm/s. This substance yielded a Papp A→B at 120 min, 100 μM in data set [2] (BRP2 100 μM) of 0.27 ± 0.07 ×10⁻⁶ cm/s. Also, the Papp in the data set on Caco-2 cell monolayer [3] (BRP2 10 μM, Caco-2, 21-day, transwell, apical to basolateral, HBSS 25 mM HEPES pH 7.4, 37°C, time point 120 min, means ± S.D.) is reported as 0.53 ± 0.01 10^-6 cm/s. The “mass balance (recovery)” value in the data set with Caco-2 cell monolayer [3] (Caco-2 transport, donor sampled at 0 and 120 min) is given as “more than 80%”.

(Values after PMC6877959, “β-Lactoglobulin Heptapeptide Reduces Oxidative Stress in Intestinal Epithelial Cells and Angiotensin II-Induced Vasoconstriction on Mouse Mesenteric Arteries by Induction of Nuclear Factor Erythroid 2-Related Factor 2 (Nrf2) Translocation” (Oxidative Medicine and Cellular Longevity, 2019).)
